From PubChem BioAssay AID248 (DTP/NCI, 2004)
Several values for one entry are separate records, joined by “and”; a condition that tells them apart may be missing. Equal values may be shown once. Toxic doses and inconclusive results are not listed. Rule as the data show it: active = T/C of 150% or more; inactive = T/C below 125%.

Test system: L1210 leukemia ip in BDF1 mice, survival T/C
Assay: NCI In Vivo Anticancer Drug Screen. Data for tumor model L1210 Leukemia (intraperitoneal) in B6D2F1 (BDF1) mice
Settings: endpoint: mean survival time, higher = longer survival
Method in brief: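 Each compound was tested against a transplantable tumor grown in mice. The endpoint was survival, with treated animals benchmarked against vehicle controls as a simple ratio.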

[1] = dose: 100.0 mg/kg/injection, schedule: Q04DX003 (ip), vehicle: saline with Tween-80
[2] = dose: 200.0 mg/kg/injection, schedule: Q04DX003 (ip), vehicle: saline with Tween-80
[3] = dose: 400.0 mg/kg/injection, schedule: Q04DX003 (ip), vehicle: saline with Tween-80
[4] = dose: 100.0 mg/kg/injection, schedule: Q01DX009 (ip), vehicle: saline with Tween-80
[5] = dose: 200.0 mg/kg/injection, schedule: Q01DX009 (ip), vehicle: saline with Tween-80
[6] = dose: 400.0 mg/kg/injection, schedule: Q01DX009 (ip), vehicle: saline with Tween-80
[7] = dose: 100.0 mg/kg/injection, schedule: Q01DX001 (ip), vehicle: saline
[8] = dose: 100.0 mg/kg/injection, schedule: Q01DX009 (ip), vehicle: Klucel (hydroxypropylcellulose) (HPC)
[9] = dose: 100.0 mg/kg/injection, schedule: Q04DX003 (ip), vehicle: Klucel (hydroxypropylcellulose) (HPC)
[10] = dose: 200.0 mg/kg/injection, schedule: Q01DX001 (ip), vehicle: saline
[11] = dose: 200.0 mg/kg/injection, schedule: Q04DX003 (ip), vehicle: Klucel (hydroxypropylcellulose) (HPC)
[12] = dose: 400.0 mg/kg/injection, schedule: Q01DX001 (ip), vehicle: saline
[13] = dose: 400.0 mg/kg/injection, schedule: Q04DX003 (ip), vehicle: Klucel (hydroxypropylcellulose) (HPC)
[14] = dose: 100.0 mg/kg/injection, schedule: Q01DX001 (ip), vehicle: carboxymethylcellulose (CMC)
[15] = dose: 200.0 mg/kg/injection, schedule: Q01DX001 (ip), vehicle: carboxymethylcellulose (CMC)
[16] = dose: 100.0 mg/kg/injection, schedule: Q04DX003 (ip), vehicle: saline
[17] = dose: 200.0 mg/kg/injection, schedule: Q04DX003 (ip), vehicle: saline

Measured: T/C

CCCCCCCCCCCCCCCC[N+]1(C)CCC[N+](C)(CCCCCCCCCCCCCCCC)CC1 (configuration not stated)
inactive: dose: 100.0 mg/kg/injection, schedule: Q01DX001 (ip), vehicle: other 111 % of control and 90 % of control | dose: 100.0 mg/kg/injection, schedule: Q04DX002 (ip), vehicle: other 94 % of control and 106 % of control | dose: 200.0 mg/kg/injection, schedule: Q01DX001 (ip), vehicle: other 96 % of control and 90 % of control | dose: 200.0 mg/kg/injection, schedule: Q04DX002 (ip), vehicle: other 97 % of control and 110 % of control | dose: 400.0 mg/kg/injection, schedule: Q01DX001 (ip), vehicle: other 96 % of control and 90 % of control | dose: 400.0 mg/kg/injection, schedule: Q04DX002 (ip), vehicle: other 98 % of control and 106 % of control

CCN(CC)CCNc1ccc(CO)c(Cl)c1
inactive: dose: 31.25 mg/kg/injection, schedule: Q01DX009 (ip), vehicle: Klucel (hydroxypropylcellulose) (HPC) 92 % of control | dose: 62.5 mg/kg/injection, schedule: Q01DX009 (ip), vehicle: Klucel (hydroxypropylcellulose) (HPC) 89 % of control | dose: 125.0 mg/kg/injection, schedule: Q01DX009 (ip), vehicle: Klucel (hydroxypropylcellulose) (HPC) 106 % of control

CC1(C)OC2COC3(COC(C)(C)O3)C(OS(C)(=O)=O)C2O1 (configuration not stated)
inactive: [1] 92 % of control | [2] 95 % of control | [3] 95 % of control

CC(Cc1ccccc1)NC1=NCCO1 (configuration not stated)
inactive: [4] 91 % of control | [5] 91 % of control | [6] 89 % of control

O=Cc1c(Cl)c(Cl)c(C=O)c(Cl)c1Cl
inactive: dose: 50.0 mg/kg/injection, schedule: Q01DX001 (ip), vehicle: saline 103 % of control | [7] 103 % of control | [8] 107 % of control | [9] 102 % of control | [10] 100 % of control | dose: 200.0 mg/kg/injection, schedule: Q01DX009 (ip), vehicle: Klucel (hydroxypropylcellulose) (HPC) 115 % of control | [11] 101 % of control | [12] 105 % of control | dose: 400.0 mg/kg/injection, schedule: Q01DX009 (ip), vehicle: Klucel (hydroxypropylcellulose) (HPC) 103 % of control | [13] 98 % of control

c1cc2cc3c(cc2cc1CC1NCCc2cc4c(cc21)OCO4)OCO3 (configuration not stated)
inactive: dose: 50.0 mg/kg/injection, schedule: Q01DX009 (ip), vehicle: Klucel (hydroxypropylcellulose) (HPC) 88 % of control | [8] 101 % of control | [9] 100 % of control | [11] 94 % of control

CC1(C)C2CCC1(CS(=O)(=O)Cl)C(=O)C2 (configuration not stated)
inactive: dose: 50.0 mg/kg/injection, schedule: Q01DX001 (ip), vehicle: carboxymethylcellulose (CMC) 100 % of control | [14] 97 % of control | [15] 97 % of control

COc1ccc([N+](=O)[O-])cc1NS(=O)(=O)c1ccc(C)cc1
inactive: dose: 50.0 mg/kg/injection, schedule: Q04DX003 (ip), vehicle: saline with Tween-80 95 % of control | [1] 94 % of control and 90 % of control | [2] 86 % of control and 92 % of control | [3] 92 % of control

O=C(O)C/C=C/C(=O)NCc1cccnc1
inactive: [7] 97 % of control | [10] 97 % of control | [12] 88 % of control

Cc1ccc(OC(=O)Nc2ccc(C(=O)O)c(O)c2)cc1
inactive: dose: 100.0 mg/kg/injection, schedule: Q01DX009 (ip), vehicle: saline 96 % of control | [16] 96 % of control | dose: 200.0 mg/kg/injection, schedule: Q01DX009 (ip), vehicle: saline 89 % of control | [17] 93 % of control | dose: 400.0 mg/kg/injection, schedule: Q04DX003 (ip), vehicle: saline 95 % of control

CC1(C(O)(c2ccccc2)c2ccccc2)CC1
inactive: dose: 25.0 mg/kg/injection, schedule: Q04DX002 (sc), vehicle: olive oil, sesame oil, peanut oil 109 % of control | dose: 50.0 mg/kg/injection, schedule: Q04DX002 (sc), vehicle: olive oil, sesame oil, peanut oil 97 % of control | dose: 100.0 mg/kg/injection, schedule: Q04DX002 (sc), vehicle: olive oil, sesame oil, peanut oil 106 % of control

C=CCN(CC=C)c1nc(Oc2ccccc2)nc(Oc2ccccc2)n1
inactive: dose: 25.6 mg/kg/injection, schedule: Q04DX002 (ip), vehicle: saline with Tween-80 104 % of control | dose: 64.0 mg/kg/injection, schedule: Q04DX002 (ip), vehicle: saline with Tween-80 101 % of control | [1] 89 % of control | dose: 160.0 mg/kg/injection, schedule: Q04DX002 (ip), vehicle: saline with Tween-80 93 % of control | [2] 92 % of control | dose: 400.0 mg/kg/injection, schedule: Q04DX002 (ip), vehicle: saline with Tween-80 89 % of control | [3] 93 % of control

O=C(O)c1nnn(Cc2ccccc2)n1
inactive: dose: 100.0 mg/kg/injection, schedule: Q04DX003 (ip), vehicle: acetone 94 % of control | dose: 200.0 mg/kg/injection, schedule: Q04DX003 (ip), vehicle: acetone 96 % of control | dose: 400.0 mg/kg/injection, schedule: Q04DX003 (ip), vehicle: acetone 96 % of control

CCN(CC)c1ccc(NC(=S)Nc2ccc(N(CC)CC)cc2)cc1
inactive: dose: 75.0 mg/kg/injection, schedule: Q01DX009 (ip), vehicle: Klucel (hydroxypropylcellulose) (HPC) 100 % of control | dose: 75.0 mg/kg/injection, schedule: Q04DX003 (ip), vehicle: saline 106 % of control | dose: 150.0 mg/kg/injection, schedule: Q01DX009 (ip), vehicle: Klucel (hydroxypropylcellulose) (HPC) 101 % of control | dose: 150.0 mg/kg/injection, schedule: Q04DX003 (ip), vehicle: saline 103 % of control | dose: 300.0 mg/kg/injection, schedule: Q01DX009 (ip), vehicle: Klucel (hydroxypropylcellulose) (HPC) 94 % of control | dose: 300.0 mg/kg/injection, schedule: Q04DX003 (ip), vehicle: saline 93 % of control

O=C(c1ccccn1)C(O)c1ccccn1 (configuration not stated)
inactive: dose: 50.0 mg/kg/injection, schedule: Q04DX002 (ip), vehicle: Klucel (hydroxypropylcellulose) (HPC) 96 % of control | dose: 100.0 mg/kg/injection, schedule: Q04DX002 (ip), vehicle: Klucel (hydroxypropylcellulose) (HPC) 99 % of control | dose: 200.0 mg/kg/injection, schedule: Q04DX002 (ip), vehicle: Klucel (hydroxypropylcellulose) (HPC) 96 % of control

O=C(NCCBr)OCc1ccccc1
inactive: dose: 50.0 mg/kg/injection, schedule: Q04DX003 (ip), vehicle: saline 98 % of control | [16] 98 % of control | [17] 101 % of control

O=C1c2ccccc2C(=C/C=C/c2ccccc2)c2ccccc21
inactive: [9] 99 % of control | [11] 89 % of control | [13] 92 % of control

O=C(O)C1C2CCC(O2)C1C(=O)O (configuration not stated)
inactive: [14] 91 % of control | [1] 100 % of control | [15] 88 % of control | [2] 96 % of control | [3] 102 % of control

COc1ccc(C2C3C=CC(C3)C2C(=O)O)cc1 (configuration not stated)
inactive: [4] 97 % of control | [1] 93 % of control | [5] 93 % of control | [6] 95 % of control | [3] 91 % of control

Clc1ncnc2c1ncn2C1CCCCO1 (configuration not stated)
active: dose: 400.0 mg/kg/injection, schedule: Q01DX009 (ip), vehicle: saline sonified 150 % of control
inactive: dose: 31.0 mg/kg/injection, schedule: Q01DX Z (ip), vehicle: other 101 % of control | dose: 62.0 mg/kg/injection, schedule: Q01DX Z (ip), vehicle: other 103 % of control | [7] 91 % of control | dose: 100.0 mg/kg/injection, schedule: Q01DX009 (ip), vehicle: saline sonified 110 % of control | dose: 175.0 mg/kg/injection, schedule: Q01DX015 (ip), vehicle: saline 113 % of control | [10] 98 % of control | dose: 200.0 mg/kg/injection, schedule: Q01DX009 (ip), vehicle: saline sonified 118 % of control | dose: 265.0 mg/kg/injection, schedule: Q01DX015 (ip), vehicle: saline 123 % of control | [12] 102 % of control | dose: 400.0 mg/kg/injection, schedule: Q01DX015 (ip), vehicle: saline 123 % of control

[Cu+].[S-]c1ccsc1
inactive: dose: 10.0 mg/kg/injection, schedule: Q01DX001 (ip), vehicle: carboxymethylcellulose (CMC) 95 % of control | dose: 20.0 mg/kg/injection, schedule: Q01DX001 (ip), vehicle: carboxymethylcellulose (CMC) 93 % of control | dose: 40.0 mg/kg/injection, schedule: Q01DX001 (ip), vehicle: carboxymethylcellulose (CMC) 90 % of control | dose: 80.0 mg/kg/injection, schedule: Q01DX001 (ip), vehicle: carboxymethylcellulose (CMC) 106 % of control
